Data as given in the NIST ThermoML archive (doi:10.1021/je800197t).
± gives the expanded uncertainty stated by the source.

Conditions: Liquid

CN1CCOCC1 [N-methylmorpholine]
Conditions | mass density [kg/m3] | viscosity [mPa·s]
293.15 K | 918.74 ± 1.4 | 1.028 ± 0.1
303.15 K | 909.54 ± 1.5 | 0.959 ± 0.096
313.15 K | 902.37 ± 1.5 | 0.858 ± 0.087
323.15 K | 893.32 ± 1.5 | 0.754 ± 0.078
333.15 K | 884.36 ± 1.6 | 0.626 ± 0.067
343.15 K | 876.52 ± 1.6 | 0.498 ± 0.056
